Patent publication US12642862B2, “Anti-CD79B antibody-drug conjugate, and preparation method therefor and pharmaceutical use thereof” (TUOJIE BIOTECH (SHANGHAI) CO., LTD., priority 2020, dated 2026)

T1: human CD79B (Homo sapiens, UniProt P40259)
T1 sequence (P40259 29-159 limits assumed): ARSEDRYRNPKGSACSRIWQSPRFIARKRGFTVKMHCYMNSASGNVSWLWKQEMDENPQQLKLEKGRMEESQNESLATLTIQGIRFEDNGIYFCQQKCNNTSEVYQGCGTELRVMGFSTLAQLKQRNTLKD

T2: CD79B protein on the surface of DoHH2 cells (Homo sapiens, UniProt P40259)
T2 construct: endogenous in cells; host or cells: DoHH2 (DOHH-2) cells
T2 sequence (P40259 29-229): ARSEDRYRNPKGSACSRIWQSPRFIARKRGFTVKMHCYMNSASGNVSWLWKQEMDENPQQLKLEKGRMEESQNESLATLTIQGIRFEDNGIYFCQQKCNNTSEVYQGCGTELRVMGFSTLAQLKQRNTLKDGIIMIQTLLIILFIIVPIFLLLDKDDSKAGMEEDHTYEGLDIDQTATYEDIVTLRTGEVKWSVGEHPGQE
T2 sequence (P11912 33-226 partner): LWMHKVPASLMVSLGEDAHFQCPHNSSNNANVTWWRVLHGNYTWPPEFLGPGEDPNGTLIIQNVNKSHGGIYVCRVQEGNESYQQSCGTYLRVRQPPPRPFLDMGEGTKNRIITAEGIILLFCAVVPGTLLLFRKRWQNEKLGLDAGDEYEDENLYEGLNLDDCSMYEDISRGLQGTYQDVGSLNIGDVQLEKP

B1: mAb015: anti-human CD79B mouse monoclonal antibody, clone 83B2G2; VH SEQ ID NO: 3, VL SEQ ID NO: 4 (antibody, listed as Mus musculus, V domains shown)
VH: QVQLQQSGAELARPGASVKLSCKASGSSFTSYGINWVKQRTGQGLEWIGEIFPRSGNTYYNEKFEGKATLTADKSSSTAYMELRSLTSEDSAVYFCAKGDLGDFDYWGQGTTLTVSS
VL: DFLMTQTPLSLPVRLGDQASISCRSSQSIVHSDGNTYFEWYLQKPGQSPKLLIYKVSNRFSGVPDRFSGSGSGTDFTLKISRVEAEDLGVYYCFQGSHVPWTFGGGTKLEIK

Legend:
[1] = test system: A549; experiment: Test Example 2 in vitro cytotoxic activity (CTG), A549; assay type: cell-based; settings: A549, 5 days; for IC50: Homo sapiens, 120 h
Experimental: (§1) In this experiment, the ATP content was determined using CTG to reflect the survival condition of the tumor cells.
(§2) Each of A549, SKBR3 and MDA-MB-468 was digested with pancreatin, resuspended in a culture medium and counted, and the cell density was adjusted to 2.2×10^4 cells/mL. 135 μL of cell suspension was added to each well in columns 2 to 11 of a 96-well plate, and column 12 was set as blank control. The cells were cultured in an incubator at 37° C. with 5% CO2 for 24 h.
(§3) a) Stock solution preparation: the drug was dissolved in DMSO to obtain a stock solution at a concentration of 5 mM.
(§4) b) Plate 1: stock solution in column 1 was initially subjected to a 40-fold dilution, and 3-fold gradient dilutions were performed sequentially in columns 2 to 11. Column 12 was filled with DMSO.
(§5) c) Plate 2: 196 μL of the corresponding culture medium was added to columns 2 to 11, and 4 μL of culture medium was pipetted from columns 3 to 12 of the plate 1 to columns 2 to 11 of the plate 2. The culture medium was mixed well.
(§6) 15 μL of culture medium was pipetted from the plate 2 and added to the cells. The cells were continuously cultured in an incubator at 37° C. with 5% C02 for 5 days.
(§7) 2.4. CTG assay: the plate was taken out and allowed to equilibrate to room temperature. 75 μL of CTG was added to each well and reacted at room temperature for 10 min away from the light. The luminescence value was read using a microplate reader and IC50 was calculated. 2.5. Data Results

[2] = test system: SKBR3; experiment: Test Example 2 in vitro cytotoxic activity (CTG), SKBR3; assay type: cell-based; settings: SKBR3, 5 days; for IC50: Homo sapiens, SK-BR-3, 120 h
Experimental: as §1, §2, §3, §4, §5, §6, §7

[3] = test system: MDA-MB-468; experiment: Test Example 2 in vitro cytotoxic activity (CTG), MDA-MB-468; assay type: cell-based; settings: MDA-MB-468, 5 days; for IC50: Homo sapiens, 120 h
Experimental: as §1, §2, §3, §4, §5, §6, §7

[4] = test system: DOHH-2 cells highly expressing human CD79B protein; experiment: Endocytosis of anti-CD79B antibodies in DOHH-2 cells; assay type: cell-based
Experimental: In order to determine whether the CD79B antibodies of the present disclosure can be endocytosed into cells with human CD79B after binding to human CD79B, a cell endocytosis experiment was performed with DOHH-2 cells (DSMZ, ACC 47) highly expressing human CD79B protein to assess the endocytosis ability of the antibodies.
The cells were collected by low temperature centrifugation at 4° C. for 5 min at 1000 rpm during the experiment. The cells were resuspended in 10-15 mL of FACS buffer pre-cooled on ice. The FACS buffer was composed of phosphate buffered saline (PBS), pH 7.4, with 2% fetal bovine serum (FBS). Throughout the experiment, FACS buffer was pre-cooled on ice. The cells were counted and centrifuged, and added to a 96-well plate at 300,000 cells/well. After centrifugation, the supernatant was discarded, and 12.5 μg/mL Fc blocking solution (BD, Cat No.: 564220) was added at 100 μL/well. Blocking was performed at room temperature for 10 min. Then, 20 μg/mL test CD79B antibody was added to the corresponding wells, and the plate was incubated at 4° C. for 1 h away from the light. The plate was washed twice with a pre-cooled PBS buffer to remove unbound antibodies. A complete cell culture medium (RPMI 1640 medium with 10% fetal bovine serum) was added, and the plate was incubated at 37° C. with 5% CO2 for 0 h, 1 h, 2 h and 4 h. After centrifugation, the supernatant was discarded, 2% PFA buffer solution was added at 100 μL/well to resuspend the cells, and the plate was left to stand for 10 min. Then, the plate was washed 3 times with an FACS buffer, and 100 μL of secondary antibody solution (fluorescent labeled goat anti-human secondary antibody: diluted in a 1:250 ratio, 2 μg/mL, Biolegend, Cat #409304) was added. The plate was incubated at 4° C. for half an hour away from the light. A pre-cooled PBS buffer was added, and the supernatant was discarded after centrifugation at 4° C., which were repeated three times. The cells were resuspended in an FACS buffer at 200 μL/well and detected using a flow cytometer (BD FACS Calibur).

[5] = biological target: T1, human CD79B; experiment: ELISA of purified anti-human CD79B mouse monoclonal antibodies; assay type: binding; design: the extracellular region (ECD) of human CD79B comprises 159 amino acids (Met1-Asp159); made in house; host or cells: 293F cells; settings: purified antibodies diluted 1:10 from 100 nM; FIG. 8
Experimental: (§8) 2) Assay on anti-human CD79B mouse monoclonal antibodies by ELISA A 96-well plate was coated with 1 μg/mL antigen at 50 μL/well and incubated in a refrigerator at 4° C. overnight. The next day, the coated antigen plate was washed once (washing solution: 1×PBST). After washing, the plate was blocked with 1% BSA blocking solution prepared in 1×PBST at 37° C. for 1 h. After washing the plate 3 times with 1×PBST, 50 μL of antibody diluted in a 1:10 ratio from 100 nM was added, and the plate was incubated in an incubator at 37° C. for 1 h. After washing the plate 3 times with 1×PBST, 100 μL of goat anti-mouse secondary antibody diluted in a 1:5000 ratio was added, and the plate was incubated in an incubator at 37° C. for 0.5 h. After washing the plate, TMB color development solutions A and B were mixed in a 1:1 ratio for color development. 15 min later, the color development reaction was stopped with 1 N hydrochloric acid. […] value was read at 450 nm on a Spectra Max M5 microplate reader.

[6] = biological target: T2, CD79B protein on the surface of DoHH2 cells; experiment: FACS of anti-human CD79B hybridoma positive clones; assay type: binding
Experimental: 4) FACS screening The suspension of DoHH2 cells was centrifuged, resuspended in PBS containing 0.1% BSA, and counted. The test serum was added, and the cells were incubated at room temperature for 60 min and washed. Then Anti-Mouse IgG (Fc specific)-FITC secondary antibody was added, and the cells were incubated at room temperature for 30 min away from the light, washed three times, gently resuspended in PBS containing 0.1% BSA, and loaded on the machine for assay.
(§9) 5) Identification of hybridoma positive clones A plurality of specific antibodies against human CD79B antigen were obtained; and 17 strains of hybridomas having strongest binding force to ELISA and FACS in assays were taken for production and purification of antibodies. Specific antibodies against monkey CD79B antigen were also obtained; and 4 strains of hybridomas having strongest binding force to ELISA and FACS in assays were taken for production and purification of antibodies. Assay results of anti-monkey CD79B hybridoma positive clone cells by FACS are shown in Table 4. mIgG was used as negative control in the both assays.

[7] = biological target: T1, human CD79B; experiment: ELISA of anti-human CD79B hybridoma positive clones; assay type: binding; design: the extracellular region (ECD) of human CD79B comprises 159 amino acids (Met1-Asp159); made in house; host or cells: 293F cells; settings: hybridoma cell supernatant, read at 450 nm
Experimental: as §8, with “3)” for “2) Assay on anti-human CD79B mouse monoclonal antibodies by”, “ELISA screening” for “ELISA”, “the test cell supernatant” for “antibody diluted in a 1:10 ratio from 100 nM”
as §9

[8] = biological target: T2, CD79B protein on the surface of DoHH2 cells; experiment: FACS of purified anti-human CD79B mouse monoclonal antibodies on DoHH2 cells; assay type: binding
Experimental: 3) Assay on anti-human CD79B mouse monoclonal antibodies by FACS The cell suspension of DoHH2 cells was centrifuged, resuspended in PBS containing 0.1% BSA, and counted. 100 μL of antibody diluted in a 1:10 ratio from 100 nM was added, and the cells were incubated at room temperature for 1 h and washed three times. Then Anti-Mouse IgG (Fc specific)-FITC secondary antibody was added, and the cells were incubated at room temperature for 30 min away from the light, washed three times, gently resuspended in PBS containing 0.1% BSA, and loaded on the machine for assay. […] The specific data are shown in FIGS. 9A and 9B, in which hIgG1 is a negative control antibody and SN8 is a positive control antibody. SN8 is an antibody (reference sequence source: US20170362318A) used in the antibody-drug conjugate polatuzumab vedotin developed by Roche pharmaceutical. Polatuzumab vedotin has been approved by the FDA for marketing.

Molecule | Maximum inhibition (%) [1] [%] | IC50 [1] [nM] | IC50 [2] [nM] | Maximum inhibition (%) [2] [%] | IC50 [3] [nM] | Maximum inhibition (%) [3] [%] | endocytosis by DOHH-2 cells at 4° C. ([4]; 20 μg/mL antibody, incubation at 4° C.) | endocytosis by DOHH-2 cells at 37° C. after 1 h ([4]; 20 μg/mL antibody, incubation at 37° C., 1 h) | endocytosis, overall judgement ([4]; DOHH-2 cells) | time at which antibody endocytosis reaches a maximum ([4]; incubation at 37° C.) [h] | ELISA binding force [5] | Mean fluorescence value [6] | Results (OD450) [7] | FACS binding force ([8]; antibodies diluted 1:10 from 100 nM, FIGS. 9A, 9B) | FACS binding force compared with SN8 ([8]; positive control antibody SN8)
C=C1C[C@@H]2CC[C@@]34C[C@H]5O[C@H]6[C@@H](O3)[C@H]3O[C@H](CC[C@@H]3O[C@H]6[C@H]5O4)CC(=O)C[C@@H]3[C@@H](OC)[C@@H](C[C@H](O)CNC)O[C@H]3C[C@H]3O[C@@H](CC[C@@H]1O2)C[C@@H](C)C3=C [E-305] | 61.27 | 2.1 | 0.571 | 96.42 | 1.17 | 88.53 | – | – | – | – | – | – | – | – | –
SN8 [reference compound] | – | – | – | – | – | – | cannot be endocytosed by DOHH-2 cells | most of the antibodies are already endocytosed by DOHH-2 cells | good endocytosis | 4 | – | – | – | – | –
C=C1C[C@@H]2CC[C@@]34C[C@H]5O[C@H]6[C@@H](O3)[C@H]3O[C@H](CC[C@@H]3O[C@H]6[C@H]5O4)CC(=O)C[C@@H]3[C@@H](OC)[C@@H](C[C@@H](CNC)OC)O[C@H]3C[C@H]3O[C@@H](CC[C@@H]1O2)C[C@@H](C)C3=C [D-2] | 62.09 | 3.08 | 1.09 | 96.85 | 1.88 | 89.43 | – | – | – | – | – | – | – | – | –
C=C1C[C@@H]2CC[C@@]34C[C@H]5O[C@H]6[C@@H](O3)[C@H]3O[C@H](CC[C@@H]3O[C@H]6[C@H]5O4)CC(=O)C[C@@H]3[C@@H](OC)[C@@H](C[C@H](O)CO)O[C@H]3C[C@H]3O[C@@H](CC[C@@H]1O2)C[C@@H](C)C3=C [E1-30] | 62.46 | 0.781 | 0.166 | 96.15 | 0.36 | 90.49 | – | – | – | – | – | – | – | – | –
B1 | – | – | – | – | – | – | – | – | – | – | strongest ELISA binding force | 10036 | 3.41 | strongest FACS binding force | superior binding force to SN8
